pIC50: −log10 of the molar value.
Target: T1, human MRGPRX4 (Homo sapiens, UniProt Q96LA9)
T1 construct: expressed in transfected cells
Assay: MRGPRX4 antagonist calcium assay (FLIPR, Fluo-8) in HEK293T cells stably expressing human MRGPRX4
Type: cell-based
Conditions: antagonist mode against 0.2 μM deoxycholic acid-3-phosphoric acid; for inhibition at 2 µM / inhibition at 0.5 µM: HEK-293T, HEK293T cells expressing human MRGPRX4; for inhibition at 2 µM: compound at 2 μM; for pIC50: top conc. 30 μM, ten 3-fold serial dilutions, class symbols; for inhibition at 0.5 µM: compound at 500 nM
Protocol: HEK293T cells stably expressing human MRGPRX4 were cultured in DMEM medium supplements with 10% FBS, 100 U/mL penicillin-streptomycin, 20 mM HEPES and 1 μg/mL puromycin at 37° C. with 5% (v/v) CO2. One day before test, the cells were detached using TrypLE™ Express and counted using cell counter. In a 384-well plate cells were seeded at a density of 20,000 cells/well in 20 μL/well planting medium (DMEM medium supplements with 5% FBS, 100 U/mL penicillin-streptomycin and 20 mM HEPES), and incubated overnight at 37° C. with 5% (v/v) CO2. On the day of experiments, the dye solution, prepared following the manufacture's instruction of the Screen Quest™ Fluo-8 No Wash Calcium Assay Kit, was added to each well (20 μL/well) of the cell plate. The cell plate was incubated at 25° C. for 1 hour. Test compounds in different doses were transferred to the cell plate by FLIPR and the plate was kept in the dark at 25° C. for 30 minutes. The agonist solution, 0.2 μM of deoxycholic acid-3-phosphoric acid in assay buffer, was added to each well of the plate. The plate was read for 160 sec with 1 sec interval to obtain data of antagonist mode in FLIPR. […] Those skilled in the art appreciate that IC50 of various compounds can be assessed in accordance with the present disclosure.

T1 sequence (Q96LA9 whole entry): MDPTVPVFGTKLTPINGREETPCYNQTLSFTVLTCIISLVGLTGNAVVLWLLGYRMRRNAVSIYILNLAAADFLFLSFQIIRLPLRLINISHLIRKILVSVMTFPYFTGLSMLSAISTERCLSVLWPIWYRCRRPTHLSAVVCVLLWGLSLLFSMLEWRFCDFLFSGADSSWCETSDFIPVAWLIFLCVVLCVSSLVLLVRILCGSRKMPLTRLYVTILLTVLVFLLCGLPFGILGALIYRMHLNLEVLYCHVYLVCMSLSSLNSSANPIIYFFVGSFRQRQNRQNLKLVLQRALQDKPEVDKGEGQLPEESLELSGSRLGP

Row | inhibition at 2 µM [%] | pIC50 | inhibition at 0.5 µM [%] | Compound
1 | 91 | > 6.30 |  | O=C(O)c1cccc2c1ccn2Cc1ccc(C(F)(F)F)cc1Cl [Compound 4]
2 | 40 | < 5.30 |  | O=C(O)c1cccc2c1CCN2Cc1ccc(C(F)(F)F)cc1 [Compound 5]
3 | 5.5 |  |  | O=C(O)c1cccc2c1ccn2CCc1cc(C(F)(F)F)ccc1Cl [Compound 37]
4 | 65 | 5.30 to 6.30 |  | FC(F)(F)c1cccc(Cn2ccc3c(-c4nnn[nH]4)cccc32)c1Cl [Compound 44]
5 | 96 | > 6.30 |  | Fc1cc(C(F)(F)F)ccc1Cn1ccc2c(-c3nnn[nH]3)cccc21 [Compound 43]
6 |  | > 6.30 | 64 | O=C(O)c1cccc2c1ccn2Cc1ccc(OC(F)(F)F)c(Cl)c1 [Compound 8]
7 |  |  | 36 | NC(=O)c1c(F)ccc2c1ccn2Cc1cccc(C(F)(F)F)c1Cl [Compound 55]
8 | 94 | > 6.30 |  | O=C(O)c1cccc2c1ccn2Cc1ccc(C(F)(F)F)cc1F [Compound 16]
9 | 5.1 |  |  | O=C(O)c1cccc2c1ccn2Cc1cc(C(F)(F)F)ccc1Cl [Compound 35]
10 |  |  | 27 | O=C(O)c1ncnc2c1ccn2Cc1cccc(C(F)(F)F)c1Cl [Compound 13]
11 | 72 |  |  | O=C(O)c1cccc2c1cnn2Cc1ccc(C(F)(F)F)cc1Cl [Compound 27]
12 |  | > 6.30 | 99.9 | Fc1ccc2c(ccn2Cc2ccc(C(F)(F)F)c(Cl)c2)c1-c1nnn[nH]1 [Compound 51]
13 | -6.2 |  |  | O=C(O)c1cccc2c1ccn2Cc1c(Cl)cc(C(F)(F)F)cc1Cl [Compound 31]
14 |  | > 6.30 | 97 | O=C(O)c1cc(Br)cc2c1ccn2Cc1cccc(C(F)(F)F)c1Cl [Compound 30]
15 |  |  | 4.3 | FC(F)(F)c1ccc(Cn2ccc3c(-c4nnn[nH]4)ncnc32)cc1Cl [Compound 48]
16 | 2.4 |  |  | O=C(O)c1cccc2c1ccn2Cc1c(Cl)cccc1C(F)(F)F [Compound 22]
17 | 3.6 |  |  | Cc1cn(Cc2cc(C(F)(F)F)ccc2Cl)c2cccc(C(=O)O)c12 [Compound 17]
18 | 100 | > 6.30 |  | FC(F)(F)c1ccc(Cn2ccc3c(-c4nnn[nH]4)cccc32)c(Cl)c1 [Compound 42]
19 |  | > 6.30 | 78 | O=C(O)c1c(F)ccc2c1ccn2Cc1ccc(C(F)(F)F)c(Cl)c1 [Compound 1]
20 |  |  | -11.2 | Fc1cc(-c2nnn[nH]2)c2ccn(Cc3cccc(C(F)(F)F)c3Cl)c2c1 [Compound 50]
21 |  |  | 20 | O=C(O)c1cccc2c1ccn2Cc1ccc(OC(F)(F)F)cc1 [Compound 7]
22 | 99.9 | > 6.30 |  | FC(F)(F)c1ccc(Cn2ccc3c(-c4nnn[nH]4)cccc32)cc1Cl [Compound 46]
23 | 7.2 |  |  | Cc1cc2c(C(=O)O)cccc2n1Cc1cc(C(F)(F)F)ccc1Cl [Compound 18]
24 |  |  | 11 | NC(=O)c1cccc2c1ccn2Cc1ccc(C(F)(F)F)c(Cl)c1 [Compound 54]
25 | -13 |  |  | O=C(O)c1cccc2c1ccn2Cc1c(Cl)cccc1Cl [Compound 32]
26 |  |  | -1.6 | O=C(O)c1cccc2c1ccn2Cc1cccc(C(F)(F)F)c1 [Compound 9]
27 | -2.4 |  |  | O=C(O)c1cccc2c1cnn2Cc1cc(C(F)(F)F)ccc1Cl [Compound 34]

Row | inhibition at 2 µM [%] | pIC50 | inhibition at 0.5 µM [%] | Compound
28 |  |  | 20 | O=C(O)c1cccc2c1ccn2Cc1cccc(C(F)(F)F)c1F [Compound 24]
29 |  | > 6.30 | 76 | O=C(O)c1cc(Cl)cc2c1ccn2Cc1cccc(C(F)(F)F)c1Cl [Compound 29]
30 | 98 | 5.30 to 6.30 |  | O=C(O)c1cccc2c1ccn2Cc1ccc(C(F)(F)F)cc1Br [Compound 33]
31 |  | > 6.30 | 86 | O=C(O)c1cc(F)cc2c1ccn2Cc1cccc(C(F)(F)F)c1Cl [Compound 28]
32 |  |  | 44 | O=C(O)c1cc(C2CC2)cc2c1ccn2Cc1cccc(C(F)(F)F)c1Cl [Compound 38]
33 |  |  | 1.6 | O=C(O)c1cc(-c2ccccc2)cc2c1ccn2Cc1cccc(C(F)(F)F)c1Cl [Compound 39]
34 | 101 | > 6.30 |  | O=C(O)c1cccc2c1ccn2Cc1cccc(C(F)(F)F)c1Cl [Compound 12]
35 | 52 |  |  | Cc1cc2c(C(=O)O)cccc2n1Cc1ccc(C(F)(F)F)cc1Cl [Compound 21]
36 | 18 |  |  | O=C(O)c1cccc2c1CCN2Cc1ccc(C(F)(F)F)cc1Cl [Compound 6]
37 |  | < 5.30 |  | O=C(O)c1cccc2c1ccn2CCc1ccc(C(F)(F)F)cc1Cl [Compound 25]
38 |  |  | 13 | FC(F)(F)c1cccc(Cn2ccc3c(-c4nnn[nH]4)ncnc32)c1Cl [Compound 47]
39 |  | > 6.30 | 90 | O=C(O)c1cccc2c1ccn2Cc1ccc(Cl)c(C(F)(F)F)c1 [Compound 10]
40 |  |  | -7.6 | NC(=O)c1cccc2c1ccn2Cc1cccc(C(F)(F)F)c1Cl [Compound 53]
41 |  |  | 5.3 | CC(c1ccc(C(F)(F)F)cc1)n1ccc2c(C(=O)O)cccc21 (centres unmarked) [Compound 15]
42 | 81 |  |  | FC(F)(F)c1ccc(Cn2ccc3c(-c4nnn[nH]4)cccc32)cc1 [Compound 41]
43 |  |  | 4.9 | O=C(O)c1ccc(Cl)c2c1ccn2Cc1cccc(C(F)(F)F)c1Cl [Compound 40]
44 | 34 | 5.30 to 6.30 |  | O=C(O)c1cccc2c1ccn2Cc1ccc(C(F)(F)F)cc1 [Compound 3]
45 | 99.7 | > 6.30 |  | O=C(O)c1cccc2c1ccn2Cc1ccc(C(F)(F)F)c(Cl)c1 [Compound 19, 1-(3-chloro-4-(trifluoromethyl)benzyl)-1H-indole-4-carboxylic acid]
46 | 97 | 5.30 to 6.30 |  | Cc1cn(Cc2ccc(C(F)(F)F)cc2Cl)c2cccc(C(=O)O)c12 [Compound 20]
47 | 49 |  |  | O=C(O)c1cccc2c1ncn2Cc1ccc(C(F)(F)F)cc1Cl [Compound 26]
48 |  |  | -1.2 | O=C(O)c1cccc2c1ccn2Cc1ccccc1C(F)(F)F [Compound 11]
49 | 29 |  |  | O=C(O)c1cccc2c1ccn2Cc1cc(Cl)cc(C(F)(F)F)c1 [Compound 23]
50 | 0.4 |  |  | O=C(O)c1cccc2c1ccn2Cc1ccccc1Cl [Compound 36]
51 |  | > 6.30 | 98 | O=C(O)c1c(F)ccc2c1ccn2Cc1cccc(C(F)(F)F)c1Cl [Compound 2]
52 | 100 | > 6.30 |  | FC(F)(F)c1ccc(Cn2ccc3c(-c4nnn[nH]4)cccc32)c(Br)c1 [Compound 45]
53 |  |  | 12 | O=C(O)c1ncnc2c1ccn2Cc1ccc(C(F)(F)F)c(Cl)c1 [Compound 14]
